Where two headings read alike, the source gives them in different places.
What was measured:
[1] = test system: Key Broadleaf Weed and Crop Species; assay: Post-emergent Test II herbicidal activity (Table 5); format: in vivo; settings: post-emergence, 336 h, 14 days after application; for pest or weed control at 70 g/ha: application rate 70 g ai/ha; for pest or weed control at 140 g/ha: application rate 140 g ai/ha
In short: (§1)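 Visual injury ratings (0 = no injury, 100 = complete kill) were taken 14 d after treatment, relative to untreated plants. Seedlings at the first–second true leaf stage received overhead spray at 187 L/ha; the highest rate was serially diluted to ½×, ¼×, ⅛× and 1/16×.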

[2] = test system: Key Grass and Sedge Weeds as well as Grass Crops; assay: Post-emergent Test II herbicidal activity (Table 6); format: in vivo; settings: post-emergence, 336 h; for pest or weed control at 70 g/ha: 70 g ai/ha; for pest or weed control at 140 g/ha: 140 g ai/ha
In short: as §1

[3] = ABUTH: velvetleaf (Abutilon theophrasti), read-out: Visual Growth Reduction (%) 14 Days After Application, ABUTH
[4] = AMARE: redroot pigweed (Amaranthus retroflexus), read-out: Visual Growth Reduction (%) 14 Days After Application, AMARE
[5] = BRSNN: oilseed-rape, canola (Brassica napus), read-out: Visual Growth Reduction (%) 14 Days After Application, BRSNN
[6] = CHEAL: lambsquarters (Chenopodium album), read-out: Visual Growth Reduction (%) 14 Days After Application, CHEAL
[7] = EPHHL: wild poinsettia (Euphorbia heterophylla), read-out: Visual Growth Reduction (%) 14 Days After Application, EPHHL
[8] = HELAN: sunflower (Helianthus annuus), read-out: Visual Growth Reduction (%) 14 Days After Application, HELAN
[9] = VIOTR: wild pansy (Viola tricolor), read-out: Visual Growth Reduction (%) 14 Days After Application, VIOTR
[10] = CYPES: yellow nutsedge (Cyperus esculentus), read-out: Visual Growth Reduction (%) 14 Days After Application, CYPES
[11] = DIGSA: crabgrass (Digitaria sanguinalis), read-out: Visual Growth Reduction (%) 14 Days After Application, DIGSA
[12] = ECHCG: barnyardgrass (Echinochloa crus-galli), read-out: Visual Growth Reduction (%) 14 Days After Application, ECHCG
[13] = ORYSA: rice (Oryza sativa), crop, read-out: Visual Growth Reduction (%) 14 Days After Application, ORYSA
[14] = SETFA: giant foxtail (Setaria faberi), read-out: Visual Growth Reduction (%) 14 Days After Application, SETFA
[15] = SORVU: grain sorghum (Sorghum vulgare), read-out: Visual Growth Reduction (%) 14 Days After Application, SORVU
[16] = TRZSS (wheat, Triticum aestivum), crop, read-out: Visual Growth Reduction (%) 14 Days After Application, TRZSS
[17] = ZEAMX: maize, corn (Zea mays), crop, read-out: Visual Growth Reduction (%) 14 Days After Application, ZEAMX

Compound: COC(=O)c1nc(-c2ccc(C(F)(F)F)c(F)c2F)nc(N)c1OC [Compound 64]
- pest or weed control at 70 g/ha [1, 3]: 95 to 100%
- pest or weed control at 140 g/ha [1, 3]: 95 to 100%
- pest or weed control at 70 g/ha [1, 4]: 45 to 59%
- pest or weed control at 140 g/ha [1, 4]: 75 to 84%
- pest or weed control at 70 g/ha [1, 5]: 75 to 84%
- pest or weed control at 140 g/ha [1, 5]: 85 to 94%
- pest or weed control at 70 g/ha [1, 6]: 95 to 100%
- pest or weed control at 140 g/ha [1, 6]: 95 to 100%
- pest or weed control at 70 g/ha [1, 7]: 95 to 100%
- pest or weed control at 140 g/ha [1, 7]: 95 to 100%
- pest or weed control at 70 g/ha [1, 8]: 95 to 100%
- pest or weed control at 140 g/ha [1, 8]: 95 to 100%
- pest or weed control at 70 g/ha [1, 9]: 60 to 74%
- pest or weed control at 140 g/ha [1, 9]: 60 to 74%
- melting point: 140 to 141 °C
- pest or weed control at 70 g/ha [2, 10]: 45 to 59%
- pest or weed control at 140 g/ha [2, 10]: 60 to 74%
- pest or weed control at 70 g/ha [2, 11]: 60 to 74%
- pest or weed control at 140 g/ha [2, 11]: 85 to 94%
- pest or weed control at 70 g/ha [2, 12]: 45 to 59%
- pest or weed control at 140 g/ha [2, 12]: 85 to 94%
- pest or weed control at 70 g/ha [2, 13]: 0 to 29%
- pest or weed control at 140 g/ha [2, 13]: 0 to 29%
- pest or weed control at 70 g/ha [2, 14]: 30 to 44%
- pest or weed control at 140 g/ha [2, 14]: 60 to 74%
- pest or weed control at 70 g/ha [2, 15]: 30 to 44%
- pest or weed control at 140 g/ha [2, 15]: 45 to 59%
- pest or weed control at 70 g/ha [2, 16]: 30 to 44%
- pest or weed control at 140 g/ha [2, 16]: 45 to 59%
- pest or weed control at 70 g/ha [2, 17]: 95 to 100%
- pest or weed control at 140 g/ha [2, 17]: 95 to 100%
